Here are results for one compound from patent publication US20250152605A1, “METHOD AND DRUG FOR TREATING NEURONAL CEROID LIPOFUSCINOSIS” (priority 2021, published 2025).

Each structure is given as a SMILES string.

Assay [1] concerns mouse tail tip fibroblasts (TTF). In words: qRT-PCR of autophagy-related and lysosomal genes in mouse tail tip fibroblasts. In kind it is cell-based. As to the method: The cells in the cell-culture dish were collected, extracted using AxyPrep Total RNA Mini Prep Kit or Qiagen AxyPrep Total RNA Mini Prep Kit, and the extracted RNA concentration is measured using Nanodrop; the extracted mRNA was reverse transcribed into cDNA by Transgen's EasyScript® One-Step gDNA Removal and cDNA Synthesis SuperMix and the primers used for reverse transcription were Oligo dT primers; the completion of reverse transcription followed by qRT-PCR reaction through PerfectStart™ Green qPCR SuperMix to detect the expression of the target gene; the qRT-PCR reaction was performed on the Bio-Rad CFX96 Real-Time PCR system; see Table 2 and Table 3 for the 20 μL qRT-PCR reaction system and reaction procedures; data analysis was performed in Prism 7 software using the 2^−ΔΔCt process with GAPDH as internal reference for relative quantification of the expression of the target gene.
Compound G was added to the mouse tail tip fibroblasts (TTF), after incubation for 6 hours, mRNA was extracted, and the transcription level of the autophagy-related genes and the lysosomal genes in the cells was detected.
First, lentivirus packaged with control shRNA or FXR shRNA-2 was used to infect the mouse TTF. After treatment with Compound G, mRNA was extracted for detection of gene transcription.
On the technique in general: Quantitative PCR measures a nucleic acid by following its amplification.

Assay [2] concerns CLN3^Δex7/8 neural stem cells. Description: Immunofluorescence staining of neural stem cell lineage markers. In kind it is cell-based, human. As to conditions: 48 hours of treatment. As to the method: Fixation: the cell medium was aspirated and the cells were washed once with dPBS, then 4% paraformaldehyde solution was added to fix the cells, which were then incubated at room temperature for 20 min and washed 3 times with dPBS for 5 min each; blocking and permeabilization: blocking solution (5% BSA and 0.3% Trinton-X100 dissolved in dPBS) was added, incubation at room temperature for 1 hour followed by washing with dPBS 3 times for 5 minutes each; primary antibody incubation: the antibody was diluted with dPBS containing 5% BSA according to the specification, incubated overnight at 4° C. or 2 hours at room temperature, and washed 3 times with dPBS for 5 minutes each; secondary antibody incubation: the secondary antibody of the corresponding species was diluted with dPBS containing 5% BSA at a ratio of 1:1000, incubated at room temperature for 1 hour, and then washed with dPBS 3 times for 5 minutes each; nuclear staining: DAPI was diluted to 100 ng/ml with dPBS, incubated at room temperature for 5 minutes, and washed 3 times with dPBS for 5 minutes each; imaging: imaging was performed using Olympus IX83 Inverted Motorized Microscope or Opera Phenix™ High Content Screening System.
After 48 hours of treatment of CLN3^Δex7/8 neural stem cells with Compound G, immunofluorescence staining was performed for the neural stem cell lineage markers SOX1, PAX6 and NESTIN.

Consider `C/C=C1\C(=O)C[C@H]2[C@@H]3CCC4=CC(=O)CC[C@]4(C)[C@H]3CC[C@]12C` [Compound G, (Z)-guggulsterone], for which the “expression of the autophagy-related genes” value was “failed to increase” in assay [1] (TTF infected with FXR shRNA-2) and “significantly increase” in assay [1] (control shRNA-infected TTF). In assay [1] (TTF, incubation for 6 hours), the “transcription level of the autophagy-related genes and the lysosomal genes” value was “significantly increase”. Further, in assay [2], the “neural stem cell lineage markers SOX1, PAX6 and NESTIN (cell fate)” value is “maintained the characteristics of SOX1, PAX6 and NESTIN positive”.
